Assay results from the NIST ThermoML archive (doi:10.1007/s10765-006-0080-z).

What was measured:
[1] = for thermal diffusivity: 101.33 kPa, Laser flash
[2] = molar heat capacity at constant pressure; settings: 101.33 kPa, Laser pulse heating

[Zr] [zirconium]
Settings | molar heat capacity at constant pressure, [2] [J/K/mol] | thermal diffusivity, [1] [m2/s]
289 K, Crystal 2 | – | 1.25e-05
293 K, Crystal 2 | 26.31 | –
323 K, Crystal 2 | 26.57 | –
327 K, Crystal 2 | – | 1.17e-05
373 K, Crystal 2 | 26.89 | –
379 K, Crystal 2 | – | 1.11e-05
423 K, Crystal 2 | 27.31 | 1.07e-05
473 K, Crystal 2 | 27.78 | 1.03e-05
523 K, Crystal 2 | 28.27 | –
524 K, Crystal 2 | – | 1.01e-05
569 K, Crystal 2 | – | 9.95e-06
573 K, Crystal 2 | 28.82 | –
621 K, Crystal 2 | – | 9.84e-06
623 K, Crystal 2 | 29.33 | –
670 K, Crystal 2 | – | 9.74e-06
673 K, Crystal 2 | 29.88 | –
715 K, Crystal 2 | – | 9.76e-06
723 K, Crystal 2 | 30.6 | –
772 K, Crystal 2 | – | 9.89e-06
773 K, Crystal 2 | 31.24 | –
823 K, Crystal 2 | 31.87 | –
827 K, Crystal 2 | – | 9.97e-06
872 K, Crystal 2 | – | 1.01e-05
873 K, Crystal 2 | 32.53 | –
923 K, Crystal 2 | 33.26 | 1.02e-05
970 K, Crystal 2 | – | 1.03e-05
973 K, Crystal 2 | 33.94 | –
1023 K, Crystal 2 | 34.6 | 1.05e-05
1068 K, Crystal 2 | – | 1.06e-05
1073 K, Crystal 2 | 35.23 | –
1083 K, Crystal 2 | 35.42 | –
1093 K, Crystal 2 | 35.84 | –
1103 K, Crystal 2 | 36.88 | –
1113 K, Crystal 2 | 39.48 | –
1121 K, Crystal 2 | – | 9.27e-06
1123 K, Crystal 2 | 43.12 | –
1128 K, Crystal 2 | 45.62 | –
1132 K, Crystal 2 | – | 8.29e-06
1133 K, Crystal 2 | 49.09 | –
1138 K, Crystal 2 | 61.42 | –
1143 K, Crystal 1 | 52.29 | 7.99e-06
1148 K, Crystal 1 | 42.04 | –
1150 K, Crystal 1 | – | 1.09e-05
1153 K, Crystal 1 | 33.83 | –
1163 K, Crystal 1 | 31 | –
1173 K, Crystal 1 | 29.58 | –
1177 K, Crystal 1 | – | 1.41e-05
1218 K, Crystal 1 | – | 1.43e-05
1223 K, Crystal 1 | 29.71 | –
1272 K, Crystal 1 | – | 1.48e-05
1273 K, Crystal 1 | 30.06 | –
1317 K, Crystal 1 | – | 1.5e-05
1323 K, Crystal 1 | 30.23 | –
1370 K, Crystal 1 | – | 1.51e-05
1373 K, Crystal 1 | 30.3 | –
1423 K, Crystal 1 | 30.53 | –
1431 K, Crystal 1 | – | 1.57e-05
1468 K, Crystal 1 | – | 1.57e-05
1473 K, Crystal 1 | 30.72 | –
1523 K, Crystal 1 | 30.91 | –
1573 K, Crystal 1 | 31.36 | –
1623 K, Crystal 1 | 31.34 | –
1673 K, Crystal 1 | 31.59 | –
1723 K, Crystal 1 | 32.07 | –
1773 K, Crystal 1 | 32.8 | –
1823 K, Crystal 1 | 33.31 | –
1873 K, Crystal 1 | 33.5 | –
1923 K, Crystal 1 | 33.68 | –
1973 K, Crystal 1 | 34.23 | –

Settings | Triple point temperature [K]
[1], Crystal 2, Laser pulse heating | 1141.4
